Laboratory results as given in ChEMBL document CHEMBL3885861, “Open TG-GATES”.

Species on record: Rattus norvegicus
Assay: Open TG-GATES - Regimen: Single
Format: toxicity, organism-based, Sprague-Dawley
Design: regimen Single, gender Male, age 6 weeks
Conditions: in vivo, po, 100 mg/kg, route gavage, dose level Low; for APTT / Bas / Eos / Fbg / Hb / Ht / Lym / MCH / MCHC / MCV / Mono / Neu / PT / Plat / RBC / Ret / WBC: tissue Blood; for KIDNEY_L / KIDNEY_R / KIDNEY_TOTAL: tissue Kidney; for LIVER: tissue Liver; for A/G / ALP / ALT / AST / BUN / CRE / Ca / Cl / DBIL / GLC / IP / K / LDH / Na / PL / RALB / TBIL / TC / TG / TP / gamma-GTP: tissue Plasma

Work on `O=C(N[C@H](CO)[C@H](O)c1ccc([N+](=O)[O-])cc1)C(Cl)Cl` [CHLORAMPHENICOL] yielded a TERMINAL_BW (3 h) of 219.7 g, an APTT (3 h) of 16 s and a Bas (3 h) of 0%. The Eos (3 h) was 0.6%, the Fbg (3 h) was 268.8 mg/dL and the Hb (3 h) was 13.2 g/dL. It also gave a Ht (3 h) of 38.6%, a Lym (3 h) of 76.2% and an MCH (3 h) of 21.9 pg. For the same compound, the MCHC (3 h) was 34.3%, the MCV (3 h) was 63.8 fL and the Mono (3 h) was 3%. The Neu (3 h) was 19.2%, the PT (3 h) was 14.6 s and the Plat (3 h) was 115.2 x10_4/uL. For the same compound, the RBC (3 h) was 608.2 x10_4/ul, the Ret (3 h) was 8.1% and the WBC (3 h) was 83.6 x10_2/uL. It also gave a KIDNEY_L (3 h) of 0.9 g, a KIDNEY_R (3 h) of 0.9 g and a KIDNEY_TOTAL (3 h) of 1.9 g. It also gave an LIVER (3 h) of 9.6 g, an A/G (3 h) of 0.8 and an ALP (3 h) of 1429.8 IU/L. For the same compound, the ALT (3 h) was 43 IU/L, the AST (3 h) was 74.2 IU/L and the BUN (3 h) was 10.2 mg/dL. For the same compound, the CRE (3 h) was 0.2 mg/dL, the Ca (3 h) was 11.5 mg/dL and the Cl (3 h) was 105 meq/L. It also gave a DBIL (3 h) of 0.014 mg/dL, a GLC (3 h) of 180.8 mg/dL and an IP (3 h) of 8.7 mg/dL. The K (3 h) was 4.2 meq/L, the LDH (3 h) was 58.6 IU/L and the Na (3 h) was 140.4 meq/L. It also gave a PL (3 h) of 136.6 mg/dL, an RALB (3 h) of 2.5 g/dL and a TBIL (3 h) of 0.06 mg/dL. For the same compound, the TC (3 h) was 78.4 mg/dL, the TG (3 h) was 58.4 mg/dL and the TP (3 h) was 5.4 g/dL. It also gave a gamma-GTP (3 h) of 1.2 IU/L, a TERMINAL_BW (6 h) of 219.6 g and an APTT (6 h) of 17.7 s. For the same compound, the Bas (6 h) was 0%, the Eos (6 h) was 0.8% and the Fbg (6 h) was 283.6 mg/dL. The Hb (6 h) was 13.4 g/dL, the Ht (6 h) was 42.9% and the Lym (6 h) was 78.2%. For the same compound, the MCH (6 h) was 21.3 pg, the MCHC (6 h) was 31.1% and the MCV (6 h) was 68.5 fL. For the same compound, the Mono (6 h) was 2.2%, the Neu (6 h) was 18.2% and the PT (6 h) was 14.7 s. For the same compound, the Plat (6 h) was 106.7 x10_4/uL, the RBC (6 h) was 627.6 x10_4/ul and the Ret (6 h) was 7.9%. It also gave a WBC (6 h) of 71.4 x10_2/uL, a KIDNEY_L (6 h) of 1 g and a KIDNEY_R (6 h) of 1 g. For the same compound, the KIDNEY_TOTAL (6 h) was 1.9 g, the LIVER (6 h) was 9.1 g and the A/G (6 h) was 0.9. The ALP (6 h) was 1362.6 IU/L, the ALT (6 h) was 39.2 IU/L and the AST (6 h) was 75.2 IU/L. For the same compound, the BUN (6 h) was 9 mg/dL, the CRE (6 h) was 0.2 mg/dL and the Ca (6 h) was 11.4 mg/dL. It also gave a Cl (6 h) of 105 meq/L, a DBIL (6 h) of 0.012 mg/dL and a GLC (6 h) of 176.8 mg/dL. It also gave an IP (6 h) of 9.6 mg/dL, a K (6 h) of 4.2 meq/L and an LDH (6 h) of 89.4 IU/L. For the same compound, the Na (6 h) was 141 meq/L, the PL (6 h) was 126.2 mg/dL and the RALB (6 h) was 2.5 g/dL. It also gave a TBIL (6 h) of 0.066 mg/dL, a TC (6 h) of 72.6 mg/dL and a TG (6 h) of 48.4 mg/dL. It also gave a TP (6 h) of 5.4 g/dL, a gamma-GTP (6 h) of 1.2 IU/L and a TERMINAL_BW (9 h) of 221.1 g. The APTT (9 h) was 16.6 s, the Bas (9 h) was 0% and the Eos (9 h) was 1%. The Fbg (9 h) was 281.8 mg/dL, the Hb (9 h) was 13.3 g/dL and the Ht (9 h) was 42.4%. The Lym (9 h) was 78.6%, the MCH (9 h) was 21.2 pg and the MCHC (9 h) was 31.3%. It also gave an MCV (9 h) of 67.8 fL, a Mono (9 h) of 2% and a Neu (9 h) of 17.6%. For the same compound, the PT (9 h) was 14.8 s, the Plat (9 h) was 115.3 x10_4/uL and the RBC (9 h) was 626.6 x10_4/ul. For the same compound, the Ret (9 h) was 7.9%, the WBC (9 h) was 61.1 x10_2/uL and the KIDNEY_L (9 h) was 0.9 g. For the same compound, the KIDNEY_R (9 h) was 0.9 g, the KIDNEY_TOTAL (9 h) was 1.9 g and the LIVER (9 h) was 9 g. For the same compound, the A/G (9 h) was 0.9, the ALP (9 h) was 1589.8 IU/L and the ALT (9 h) was 38.8 IU/L. The AST (9 h) was 67.2 IU/L, the BUN (9 h) was 9 mg/dL and the CRE (9 h) was 0.2 mg/dL. It also gave a Ca (9 h) of 11.4 mg/dL, a Cl (9 h) of 105.2 meq/L and a DBIL (9 h) of 0.014 mg/dL. It also gave a GLC (9 h) of 181 mg/dL, an IP (9 h) of 10 mg/dL and a K (9 h) of 4.2 meq/L. It also gave an LDH (9 h) of 61.4 IU/L, a Na (9 h) of 140.8 meq/L and a PL (9 h) of 145.6 mg/dL. It also gave an RALB (9 h) of 2.6 g/dL, a TBIL (9 h) of 0.072 mg/dL and a TC (9 h) of 83.2 mg/dL. It also gave a TG (9 h) of 47.4 mg/dL, a TP (9 h) of 5.5 g/dL and a gamma-GTP (9 h) of 1 IU/L. For the same compound, the TERMINAL_BW (24 h) was 224.4 g, the APTT (24 h) was 16.8 s and the Bas (24 h) was 0%. For the same compound, the Eos (24 h) was 1%, the Fbg (24 h) was 264.4 mg/dL and the Hb (24 h) was 13.3 g/dL. The Ht (24 h) was 41.6%, the Lym (24 h) was 79.8% and the MCH (24 h) was 21.4 pg. For the same compound, the MCHC (24 h) was 32%, the MCV (24 h) was 66.7 fL and the Mono (24 h) was 3.6%. For the same compound, the Neu (24 h) was 15%, the PT (24 h) was 14.8 s and the Plat (24 h) was 123 x10_4/uL. For the same compound, the RBC (24 h) was 623.4 x10_4/ul, the Ret (24 h) was 7% and the WBC (24 h) was 81.1 x10_2/uL. The KIDNEY_L (24 h) was 1 g, the KIDNEY_R (24 h) was 1 g and the KIDNEY_TOTAL (24 h) was 1.9 g. The LIVER (24 h) was 9.4 g, the A/G (24 h) was 0.9 and the ALP (24 h) was 1622.8 IU/L. It also gave an ALT (24 h) of 48.2 IU/L, an AST (24 h) of 80.4 IU/L and a BUN (24 h) of 15 mg/dL. The CRE (24 h) was 0.2 mg/dL, the Ca (24 h) was 11.4 mg/dL and the Cl (24 h) was 105.8 meq/L. The DBIL (24 h) was 0.012 mg/dL, the GLC (24 h) was 186.6 mg/dL and the IP (24 h) was 8.6 mg/dL. The K (24 h) was 4.1 meq/L, the LDH (24 h) was 61.4 IU/L and the Na (24 h) was 141.6 meq/L. For the same compound, the PL (24 h) was 133 mg/dL, the RALB (24 h) was 2.6 g/dL and the TBIL (24 h) was 0.058 mg/dL. For the same compound, the TC (24 h) was 76.8 mg/dL, the TG (24 h) was 53.6 mg/dL and the TP (24 h) was 5.6 g/dL. The gamma-GTP (24 h) was 1 IU/L.
